ChEMBL document CHEMBL5661967, “Antitumor activity of HKI-272, an orally active, irreversible inhibitor of the HER-2 tyrosine kinase” (Cancer Res, 2004)
pIC50: −log10 of the molar value.

Biological target: Receptor tyrosine-protein kinase erbB-2 (Homo sapiens, UniProt P04626)
Test: Inhibition of recombinant N-terminal His6-tagged HER2 cytoplasmic domain (676 to 1255 residues) (unknown origin) expressed in baculovirus infected Sf9 insect cells assessed as reduction in autophosphorylation preincubated for 15 mins followed by ATP addition and measured after 1 hr by ELISA

Receptor tyrosine-protein kinase erbB-2, sequence (P04626 whole entry, the tested form may be a part): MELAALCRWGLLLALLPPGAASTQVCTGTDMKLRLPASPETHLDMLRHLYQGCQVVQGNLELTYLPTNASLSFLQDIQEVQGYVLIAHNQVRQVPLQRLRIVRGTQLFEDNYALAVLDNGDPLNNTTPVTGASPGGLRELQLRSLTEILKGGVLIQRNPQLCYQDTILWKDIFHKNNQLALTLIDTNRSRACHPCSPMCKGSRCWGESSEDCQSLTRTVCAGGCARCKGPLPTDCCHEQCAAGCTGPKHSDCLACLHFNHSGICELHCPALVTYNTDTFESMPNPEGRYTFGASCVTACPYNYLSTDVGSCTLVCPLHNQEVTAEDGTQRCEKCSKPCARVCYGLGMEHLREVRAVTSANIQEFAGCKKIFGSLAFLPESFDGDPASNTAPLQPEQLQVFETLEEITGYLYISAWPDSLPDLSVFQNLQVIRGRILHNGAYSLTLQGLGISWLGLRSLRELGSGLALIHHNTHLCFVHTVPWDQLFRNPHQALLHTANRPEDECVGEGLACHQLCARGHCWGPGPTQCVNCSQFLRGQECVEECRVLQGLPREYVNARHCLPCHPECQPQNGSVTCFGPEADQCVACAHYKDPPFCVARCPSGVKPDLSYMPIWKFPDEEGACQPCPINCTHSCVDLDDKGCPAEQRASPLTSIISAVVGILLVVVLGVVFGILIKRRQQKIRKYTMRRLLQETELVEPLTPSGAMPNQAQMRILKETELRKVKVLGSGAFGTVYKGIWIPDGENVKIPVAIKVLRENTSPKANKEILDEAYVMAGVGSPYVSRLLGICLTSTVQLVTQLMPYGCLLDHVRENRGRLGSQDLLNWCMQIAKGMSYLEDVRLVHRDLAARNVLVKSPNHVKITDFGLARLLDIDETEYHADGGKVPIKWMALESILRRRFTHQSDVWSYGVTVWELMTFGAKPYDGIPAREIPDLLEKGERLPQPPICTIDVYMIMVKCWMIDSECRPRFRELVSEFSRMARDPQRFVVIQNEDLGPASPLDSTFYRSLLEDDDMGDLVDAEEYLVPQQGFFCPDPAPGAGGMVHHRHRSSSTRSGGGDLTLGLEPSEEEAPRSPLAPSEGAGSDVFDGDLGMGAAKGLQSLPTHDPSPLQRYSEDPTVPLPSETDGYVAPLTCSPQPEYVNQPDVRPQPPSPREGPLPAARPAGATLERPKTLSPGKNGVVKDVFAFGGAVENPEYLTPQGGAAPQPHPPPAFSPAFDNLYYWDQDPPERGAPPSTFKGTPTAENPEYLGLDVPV

pIC50: 5.90
SMILES: CCOc1cc2ncc(C#N)c(Nc3ccc(F)c(Cl)c3)c2cc1NC(=O)/C=C/CN(C)C [PELITINIB]
